Data: ChEMBL document CHEMBL1681646 (Bioorg Med Chem Lett, 2011)

Biological target: T1, Pancreatic triacylglycerol lipase (Sus scrofa, UniProt P00591)
T1 sequence (P00591 whole entry): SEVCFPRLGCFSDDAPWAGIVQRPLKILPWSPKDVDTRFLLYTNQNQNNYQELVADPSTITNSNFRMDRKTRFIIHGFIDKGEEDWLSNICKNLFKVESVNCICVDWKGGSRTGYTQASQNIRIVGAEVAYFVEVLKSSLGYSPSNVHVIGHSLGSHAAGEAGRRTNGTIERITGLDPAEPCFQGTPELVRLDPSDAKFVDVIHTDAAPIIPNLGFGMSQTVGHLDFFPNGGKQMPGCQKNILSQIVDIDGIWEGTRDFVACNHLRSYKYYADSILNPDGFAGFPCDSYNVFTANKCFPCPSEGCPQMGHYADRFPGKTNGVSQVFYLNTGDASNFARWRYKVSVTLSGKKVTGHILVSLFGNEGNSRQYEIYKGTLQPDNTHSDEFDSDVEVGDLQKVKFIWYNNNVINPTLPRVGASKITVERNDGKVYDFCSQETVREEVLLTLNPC
Assay: Inhibition of pig pancreatic lipase assessed as p-NPB hydrolysis […]

SMILES	IC50
COc1cc([C@@H](O)[C@H](C)O)ccc1O (relative stereo)	12.1 µM
COc1cc([C@H](O)[C@H](C)O)ccc1O (relative stereo)	9.1 µM
COc1cc([C@H]2CC(=O)O[C@H]2C)ccc1O (relative stereo) [CURCULACTONE A]	232 µM
COc1cc(C(=O)O)ccc1O [VANILLIC ACID]	> 250 µM
COc1cc(C=O)ccc1O [VANILLIN]	174 µM
